Earlier results as cited in patent US20030195171A1 (priority 2002, published 2003).

Columns and labels:
[1] = target: T1, vitamin D receptor (Homo sapiens, UniProt P11473); conditions: relative to 1α,25-dihydroxy-cholecalciferol
T1 sequence (P11473 1-427): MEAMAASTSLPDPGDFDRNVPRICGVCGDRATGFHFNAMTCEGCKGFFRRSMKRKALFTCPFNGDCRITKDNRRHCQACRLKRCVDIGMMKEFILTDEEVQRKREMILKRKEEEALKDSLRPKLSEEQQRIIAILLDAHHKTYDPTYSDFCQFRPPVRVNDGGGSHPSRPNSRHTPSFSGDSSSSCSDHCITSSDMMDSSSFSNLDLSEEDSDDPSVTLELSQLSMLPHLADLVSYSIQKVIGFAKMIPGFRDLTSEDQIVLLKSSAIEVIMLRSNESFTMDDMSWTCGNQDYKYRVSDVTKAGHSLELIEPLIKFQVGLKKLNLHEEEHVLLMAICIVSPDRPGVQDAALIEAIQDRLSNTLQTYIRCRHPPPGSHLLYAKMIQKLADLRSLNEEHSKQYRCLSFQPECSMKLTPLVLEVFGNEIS

[2] = compared to placebo

## C=C1CC[C@H](O)C/C1=C/C=C1\CCC[C@]2(C)[C@@H]([C@H](C)CCCC(C)(C)O)CC[C@@H]12 [25-hydroxy-cholecalciferol]
[1]
  Intrinsic activity, fold lower than that of 1α,25-dihydroxy-cholecalciferol: about 100 fold

## NCCCC(O)(P(=O)(O)O)P(=O)(O)O [alendronate, 4-Amino-1-hydroxybutylidene-1,1-bisphosphonic acid monosodium trihydrate]
[2]; administered over a substantial period of time
  Decrease in the risk of vertebral fractures: at least 40%
[2]; total number of vertebral fractures
  Reduction in vertebral fracture rate per 100 patients: at least 50%
